Measured values taken from patent US20230201188A1, “COMPOSITIONS AND METHODS FOR TREATING LEUKEMIA” (Augusta University Research Institute, Inc., priority 2020, published 2023).

How the values were obtained:
[1] = system: patient-derived ATL cells; assay: ATL patient-derived cell viability; format: cell-based; conditions: various concentrations, FIG. 1B
Protocol: (§1) HUT 102 cells and patient-derived ATL cells were treated with various concentrations of mJJ64C (Compound 17) or mJJ64 (Compound 1). Cell viability was determined.

[2] = target: Akt3 (Homo sapiens, UniProt Q9Y243); assay: Akt3 inhibition (no method described)
Chain of Akt3 (Q9Y243 whole entry): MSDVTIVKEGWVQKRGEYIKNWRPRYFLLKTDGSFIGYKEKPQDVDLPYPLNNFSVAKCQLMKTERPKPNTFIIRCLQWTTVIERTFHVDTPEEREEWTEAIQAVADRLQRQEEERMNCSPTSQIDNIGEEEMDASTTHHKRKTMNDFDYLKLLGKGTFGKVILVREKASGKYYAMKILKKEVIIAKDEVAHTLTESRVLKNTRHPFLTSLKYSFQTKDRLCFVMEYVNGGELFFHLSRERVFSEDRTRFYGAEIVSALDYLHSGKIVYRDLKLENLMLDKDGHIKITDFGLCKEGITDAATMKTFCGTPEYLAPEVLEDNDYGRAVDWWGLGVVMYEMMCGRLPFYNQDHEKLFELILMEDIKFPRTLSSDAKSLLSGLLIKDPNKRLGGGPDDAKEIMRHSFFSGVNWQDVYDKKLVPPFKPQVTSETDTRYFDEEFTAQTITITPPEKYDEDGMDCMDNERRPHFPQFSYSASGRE

[3] = system: survivin; assay: survivin gene expression in HUT102 cells (RT-PCR); format: cell-based; conditions: at 2 uM and above, FIG. 2
Protocol: (§2) HUT102 cells were treated with different concentrations of Compound 17 (0.5 uM, 1 uM, 2 uM and 4 uM). Expression of b-cat, c-myc, and survivin were evaluated using RT-PCR.

[4] = system: b-cat; assay: b-cat gene expression in HUT102 cells (RT-PCR); format: cell-based; conditions: at 2 uM and above, FIG. 2
Protocol: as §2

[5] = system: c-myc; assay: c-myc gene expression in HUT102 cells (RT-PCR); format: cell-based; conditions: at 2 uM and above, FIG. 2
Protocol: as §2

[6] = system: HUT102 cells; assay: HUT102 cell viability; format: cell-based; conditions: various concentrations, FIG. 1A
Protocol: as §1

For O=C(Nc1ccc(Nc2ccncc2)cc1)c1ccc(Nc2ccnc3ccc([N+](=O)[O-])cc23)cc1 [Compound 1, 4-[(6-nitroquinolin-4-yl)amino]-N-[4-(pyridin-4-ylamino)phenyl]benzamide], the cell viability [1] was “reduce cell viability” and the Akt3 activity [2] was “selectively inhibits Akt3 activity”.
O=C(Nc1cccc(Nc2ccncc2)c1)c1cccc(Nc2ccnc3ccc(F)cc23)c1 [Compound 17] was tested, and the expression of survivin [3] was “significantly inhibits”, the expression of b-cat [4] was “significantly inhibits” and the expression of c-myc [5] was “significantly inhibits”.
O=C(O)c1ccc2nccc(Nc3ccc(C(=O)Nc4ccc(Nc5ccncc5)cc4)cc3)c2c1 [Compound 18] was tested, and the cell viability [6] was “reduce cell viability”.
